Measurements published in ChEMBL document CHEMBL1133386, “Synthesis and antitumor activities of 5-methyl-1- and 2-[[2-dimethylaminoethyl]amino]-aza-thiopyranoindazoles” (Bioorg Med Chem Lett, 2000).
Converted amounts (≈) assume the structure as drawn.

Legend:
L1210 = experiment: In vitro cytotoxic activity against murine leukemia L1210 cells.; type: functional, cell-based; conditions: Mus musculus
LoVo [1] = experiment: In vitro cytotoxic activity against human colon adenocarcinoma resistant to doxorubicin (LoVo Dx) cells; type: functional, cell-based
[2] = Resistance index was determined by ratio of cytotoxicities of human colon adenocarcinoma (LoVo) cells to human colon adenocarcinoma resistant to doxorubicin (LoVo Dx) cells.; type: functional
LoVo [3] = experiment: In vitro cytotoxic activity against human colon adenocarcinoma (LoVo) cells; type: functional, cell-based
[4] = In vitro cytotoxic activity against sarcoma S-180 cells.; type: functional, cell-based; conditions: Mus musculus
[5] = In vitro cytotoxic activity against sarcoma resistant to doxorubicin S-180 Dx cells.; type: functional, cell-based; conditions: Mus musculus
LoVo [6] = experiment: In vitro cytotoxic activity against human colon adenocarcinoma (LoVo) cells.; type: functional, cell-based
LoVo [7] = experiment: In vitro cytotoxic activity against human colon adenocarcinoma resistant to doxorubicin (LoVo Dx) cells.; type: functional, cell-based

| Compound | IC50 (L1210) [µg/mL] | IC50 (LoVo [1]) [µg/mL] | Resistance index [2] | IC50 (LoVo [3]) [µg/mL] | IC50 [4] [µg/mL] | IC50 [5] [µg/mL] | IC50 (LoVo [6]) [µg/mL] | IC50 (LoVo [7]) [µg/mL] |
| --- | --- | --- | --- | --- | --- | --- | --- | --- |
| Cc1ccc2c3c(nn2CCN(C)C)-c2ccccc2Sc13 | 0.07 (≈ 0.226 µM) | 1.7 (≈ 5.49 µM) | 2.4 | 0.7 (≈ 2.26 µM) | – | – | – | – |
| Cc1ccc2nn(CCN(C)C)c3c2c1Sc1cnccc1-3 | 0.25 (≈ 0.805 µM) | – | – | – | 0.35 (≈ 1.13 µM) | 0.4 (≈ 1.29 µM) | – | – |
| Cc1ccc2c3c(nn2CCN(C)C)-c2cccnc2Sc13 | 0.08 (≈ 0.258 µM) | – | 1.1 | – | 0.46 (≈ 1.48 µM) | 0.62 (≈ 2 µM) | 3.1 (≈ 9.99 µM) | 3.3 (≈ 10.6 µM) |
| Cc1ccc2c3c(nn2CCN(C)C)-c2ccncc2Sc13 | 0.045 (≈ 0.145 µM) | – | 1 | – | 0.08 (≈ 0.258 µM) | 0.7 (≈ 2.25 µM) | 2.3 (≈ 7.41 µM) | 2.3 (≈ 7.41 µM) |
| Cc1ccc2nn(CCN(C)C)c3c2c1Sc1ncccc1-3 | 0.26 (≈ 0.838 µM) | – | – | – | 0.3 (≈ 0.966 µM) | 0.33 (≈ 1.06 µM) | – | – |
| Cc1ccc2c3c(nn2CCN(C)C)-c2cnccc2Sc13 | 0.0006 (≈ 0.00193 µM) | – | 4.5 | – | 0.003 (≈ 0.00966 µM) | 0.009 (≈ 0.029 µM) | 0.004 (≈ 0.0129 µM) | 0.018 (≈ 0.058 µM) |
| Cc1ccc2nn(CCN(C)C)c3c2c1Sc1ccccc1-3 | 0.25 (≈ 0.808 µM) | – | – | – | 0.5 (≈ 1.62 µM) | 0.75 (≈ 2.42 µM) | – | – |
| COc1cccc2c1C(=O)c1c(O)c3c(c(O)c1C2=O)C[C@@](O)(C(=O)CO)C[C@@H]3O[C@H]1C[C@H](N)[C@H](O)[C@H](C)O1 [DOXORUBICIN] | – | – | 97 | 0.52 (≈ 0.957 µM) | – | – | – | – |
| O=C1c2c(O)ccc(O)c2C(=O)c2c(NCCNCCO)ccc(NCCNCCO)c21 [MITOXANTRONE] | – | – | 27 | 0.023 (≈ 0.0517 µM) | – | – | – | 0.62 (≈ 1.39 µM) |
